We go through two compounds from article PMC9579733 (Journal of Orthopaedic Translation, 2022).

In data set [1] the test system is osteoblast-specific factor 2 (OSF-2). To be noted: ref [21]; cited from earlier work.
Another data set concerns human and mouse OBs. Particulars: peptide screened by phage technology; ref [21]; cited from earlier work.
Another data set deals with MC3T3-E1 cells. The experiment in a line: ALP activity analysis of MC3T3-E1 cells. To be noted: osteogenic differentiation medium, GPA 50 μM or SGPA 2.5-10 μM; 14 days (method) / 7 days (Fig. 3 legend). The data set is classed as cell-based, mouse.
For data set [2] the following is noted: ref [9],[10]; cited from earlier work.
For data set [3], the system named is farnesoid X receptor (FXR). To be noted: ref [11],[12]; cited from earlier work.
In the next data set the test system is FXR-RUNX2 signalling. Kind of data set: FXR-RUNX2 signalling in femur of OVX mice. The data set is classed as in vivo, C57BL/6J mice. To be noted: 20 mg/kg intravenously daily for 4 weeks, qRT-PCR, n = 6. For orientation: Real-time PCR tracks product formation cycle by cycle.

Consider Ser-Asp-Ser-Ser-Asp [SDSSD], for which the “affinity with osteoblast-specific factor 2 (OSF-2)” value in data set [1] is reported as “high affinity”. Besides, the “targeting of OBs” value in the data set on human and mouse OBs is “can specifically target both human and mouse OBs”.

In the case of `O=C(O)C1=CO[C@@H](O[C@@H]2O[C@H](CO)[C@@H](O)[C@H](O)[C@H]2O)[C@@H]2C(CO)=CC[C@H]12` [GPA, Geniposidic acid], the ALP activity result with MC3T3-E1 cells was “increased”. For the same compound, the “tissue enrichment of GPA” value in data set [2] is “enriched in liver and kidney”. Also, the “activation of farnesoid X receptor (FXR)” value in data set [3] was “activated”. In the data set on FXR-RUNX2 signalling, the “mRNA expression of Bsep (a target gene for FXR) in femur” value is “significantly increased” and the “mRNA expression of Runx2 in femur” value was “significantly increased”.
